Experimental data: PubChem BioAssay (NCI)
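Assay format: 96-well plates, 48-hour exposure. At the GI50, growth is halved. The concentration for full growth arrest is given as TGI.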

What was measured:
Test in all cases: NCI anticancer screen, dose series, 48 h; in the data active means GI50 below about 0.43 µM; inactive means the rest
SF-295 CNS = tested on: SF-295 CNS
HT29 colon = tested on: HT29 colon
IGROV1 ovarian = tested on: IGROV1 ovarian
T-47D breast = tested on: T-47D breast
SK-MEL-5 melanoma = tested on: SK-MEL-5 melanoma
M14 melanoma = tested on: M14 melanoma
A549 NSCLC = tested on: A549 NSCLC
OVCAR-3 ovarian = tested on: OVCAR-3 ovarian
TK-10 renal = tested on: TK-10 renal
U251 CNS = tested on: U251 CNS
786-0 renal = tested on: 786-0 renal
UACC-257 melanoma = tested on: UACC-257 melanoma
UACC-62 melanoma = tested on: UACC-62 melanoma
NCI-H23 lung = tested on: NCI-H23 lung
DU-145 prostate = tested on: DU-145 prostate
HL-60(TB) leukemia = tested on: HL-60(TB) leukemia
HOP-92 NSCLC = tested on: HOP-92 NSCLC
RPMI-8226 leukemia = tested on: RPMI-8226 leukemia
COLO 205 colon = tested on: COLO 205 colon
SF-268 CNS = tested on: SF-268 CNS
SK-MEL-28 melanoma = tested on: SK-MEL-28 melanoma
NCI/ADR-RES ovarian = tested on: NCI/ADR-RES ovarian
NCI-H522 lung = tested on: NCI-H522 lung
MDA-MB-435 = tested on: MDA-MB-435
RXF 393 renal = tested on: RXF 393 renal
SK-OV-3 ovarian = tested on: SK-OV-3 ovarian
SW-620 colon = tested on: SW-620 colon
OVCAR-5 ovarian = tested on: OVCAR-5 ovarian
SNB-19 CNS = tested on: SNB-19 CNS
EKVX NSCLC = tested on: EKVX NSCLC
A498 renal = tested on: A498 renal
UO-31 renal = tested on: UO-31 renal
HCC-2998 colon = tested on: HCC-2998 colon
CCRF-CEM leukemia = tested on: CCRF-CEM leukemia
NCI-H460 lung = tested on: NCI-H460 lung
MOLT-4 leukemia = tested on: MOLT-4 leukemia
BT-549 breast = tested on: BT-549 breast
SNB-75 CNS = tested on: SNB-75 CNS
KM12 colon = tested on: KM12 colon
CAKI-1 renal = tested on: CAKI-1 renal
HOP-62 NSCLC = tested on: HOP-62 NSCLC
SR leukemia = tested on: SR leukemia
SN12C renal = tested on: SN12C renal
HCT-116 colon = tested on: HCT-116 colon
MDA-MB-231 breast = tested on: MDA-MB-231 breast
PC-3 prostate = tested on: PC-3 prostate
LOX IMVI melanoma = tested on: LOX IMVI melanoma
HCT-15 colon = tested on: HCT-15 colon
HS 578T breast = tested on: HS 578T breast
K-562 leukemia = tested on: K-562 leukemia
ACHN renal = tested on: ACHN renal
MALME-3M melanoma = tested on: MALME-3M melanoma
NCI-H226 lung = tested on: NCI-H226 lung
OVCAR-4 ovarian = tested on: OVCAR-4 ovarian
MCF7 breast = tested on: MCF7 breast
SK-MEL-2 melanoma = tested on: SK-MEL-2 melanoma
OVCAR-8 ovarian = tested on: OVCAR-8 ovarian
SF-539 CNS = tested on: SF-539 CNS

COc1ccc(-n2cc(-c3cc(OC)c(OC)c(OC)c3)c(C(=O)C(F)(F)F)c2C)cc1
> 100 µM: TGI (SF-295 CNS) | TGI (HT29 colon) | TGI (IGROV1 ovarian) | TGI (T-47D breast) | TGI (SK-MEL-5 melanoma) | TGI (M14 melanoma) | TGI (A549 NSCLC) | TGI (OVCAR-3 ovarian) | TGI (TK-10 renal) | TGI (U251 CNS) | TGI (786-0 renal) | TGI (UACC-257 melanoma) | TGI (UACC-62 melanoma) | TGI (NCI-H23 lung) | TGI (DU-145 prostate) | TGI (HL-60(TB) leukemia) | TGI (RPMI-8226 leukemia) | TGI (COLO 205 colon) | TGI (SF-268 CNS) | TGI (SK-MEL-28 melanoma) | TGI (NCI/ADR-RES ovarian) | TGI (NCI-H522 lung) | TGI (MDA-MB-435) | TGI (RXF 393 renal) | TGI (SK-OV-3 ovarian) | TGI (SW-620 colon) | TGI (OVCAR-5 ovarian) | TGI (SNB-19 CNS) | TGI (EKVX NSCLC) | TGI (A498 renal) | TGI (UO-31 renal) | TGI (HCC-2998 colon) | TGI (CCRF-CEM leukemia) | TGI (NCI-H460 lung) | TGI (MOLT-4 leukemia) | TGI (BT-549 breast) | TGI (SNB-75 CNS) | TGI (KM12 colon) | TGI (CAKI-1 renal) | TGI (HOP-62 NSCLC) | TGI (SR leukemia) | TGI (SN12C renal) | TGI (HCT-116 colon) | TGI (MDA-MB-231 breast) | TGI (PC-3 prostate) | TGI (LOX IMVI melanoma) | TGI (HCT-15 colon) | TGI (HS 578T breast) | TGI (K-562 leukemia) | TGI (ACHN renal) | TGI (MALME-3M melanoma) | TGI (NCI-H226 lung) | TGI (OVCAR-4 ovarian) | TGI (MCF7 breast) | TGI (SK-MEL-2 melanoma) | TGI (OVCAR-8 ovarian) | TGI (SF-539 CNS)
21.5 µM: TGI (HOP-92 NSCLC)
inactive: GI50 (SF-295 CNS) > 100 µM | GI50 (HT29 colon) 9.75 µM | GI50 (IGROV1 ovarian) 85.7 µM | GI50 (T-47D breast) 3.81 µM | GI50 (SK-MEL-5 melanoma) 7.33 µM | GI50 (M14 melanoma) > 100 µM | GI50 (A549 NSCLC) 28 µM | GI50 (OVCAR-3 ovarian) 24.9 µM | GI50 (TK-10 renal) 35.7 µM | GI50 (U251 CNS) 63.4 µM | GI50 (786-0 renal) > 100 µM | GI50 (UACC-257 melanoma) 15.7 µM | GI50 (UACC-62 melanoma) 15.6 µM | GI50 (NCI-H23 lung) 8.53 µM | GI50 (DU-145 prostate) > 100 µM | GI50 (HL-60(TB) leukemia) 37.3 µM | GI50 (HOP-92 NSCLC) 2.39 µM | GI50 (RPMI-8226 leukemia) 4.53 µM | GI50 (COLO 205 colon) 65.2 µM | GI50 (SF-268 CNS) 99.5 µM | GI50 (SK-MEL-28 melanoma) > 100 µM | GI50 (NCI/ADR-RES ovarian) 25.8 µM | GI50 (NCI-H522 lung) 20 µM | GI50 (MDA-MB-435) 43.3 µM | GI50 (RXF 393 renal) > 100 µM | GI50 (SK-OV-3 ovarian) > 100 µM | GI50 (SW-620 colon) > 100 µM | GI50 (OVCAR-5 ovarian) > 100 µM | GI50 (SNB-19 CNS) > 100 µM | GI50 (EKVX NSCLC) 13.9 µM | GI50 (A498 renal) 6.4 µM | GI50 (UO-31 renal) 4.6 µM | GI50 (HCC-2998 colon) > 100 µM | GI50 (CCRF-CEM leukemia) 16.1 µM | GI50 (NCI-H460 lung) 29.4 µM | GI50 (MOLT-4 leukemia) 6.02 µM | GI50 (BT-549 breast) 56.2 µM | GI50 (SNB-75 CNS) 13.8 µM | GI50 (KM12 colon) 32.6 µM | GI50 (CAKI-1 renal) 73.8 µM | GI50 (HOP-62 NSCLC) > 100 µM | GI50 (SR leukemia) 4.54 µM | GI50 (SN12C renal) 28.6 µM | GI50 (HCT-116 colon) 6.93 µM | GI50 (MDA-MB-231 breast) > 100 µM | GI50 (PC-3 prostate) 9.01 µM | GI50 (LOX IMVI melanoma) 47.4 µM | GI50 (HCT-15 colon) 59.4 µM | GI50 (HS 578T breast) 53.1 µM | GI50 (K-562 leukemia) 22 µM | GI50 (ACHN renal) 54.6 µM | GI50 (MALME-3M melanoma) > 100 µM | GI50 (NCI-H226 lung) > 100 µM | GI50 (OVCAR-4 ovarian) 9.28 µM | GI50 (MCF7 breast) 14.2 µM | GI50 (SK-MEL-2 melanoma) > 100 µM | GI50 (OVCAR-8 ovarian) > 100 µM | GI50 (SF-539 CNS) > 100 µM
